Results reported in publication PMC4956724, “Assessing the reliability of uptake and elimination kinetics modelling approaches for estimating bioconcentration factors in the freshwater invertebrate, Gammarus pulex” (The Science of the Total Environment, 2016).
Where two headings read alike, the source gives them in different places.

Columns and labels:
G. pulex [1] = conditions: in vivo
G. pulex [2] = conditions: cited from earlier work
G. pulex exoskeleton = conditions: both, Gammarus pulex, in vivo, pH 8.2
Gammarus pulex = test: Toxicokinetic exposure (48 h uptake, 48 h depuration) of radio-labelled pharmaceuticals, first-order one-compartment model (OECD 305); conditions: for BCF, Simultaneous BCF: kinetic BCF (k1/k2); for BCF, Simultaneous BCF / k2 (elimination rate constant), Simultaneous BCF / k1 (uptake rate constant), Simultaneous BCF: simultaneous method; for BCF, Sequential BCF a / BCF, Sequential BCF b: kinetic BCF; for BCF, Sequential BCF a / k1, Sequential BCF a / k2, Sequential BCF a: sequential using curve fitting method; for BCF, Sequential BCF b / k1, Sequential BCF b / k2, Sequential BCF b: sequential using linear regression; for k2 (elimination rate constant), Simultaneous BCF / k1 (uptake rate constant), Simultaneous BCF: 1 μg·L^− 1 (diclofenac, ibuprofen 10 μg·L^− 1), 15 °C, pH 8.2
[3] = Control wells without G. pulex: loss of compound by sorption to the walls of culture plates; format: physicochemical; conditions: control wells with exposure media only
G. pulex [4] = test: Re-examination of raw toxicokinetic data from Ashauer et al. (2010) using the OECD 305 modelling approach; conditions: 2010 re-modelled
G. pulex [5] = tested on: G. pulex; design: method as in Meredith-Williams et al., 2012; conditions: ref Meredith-Williams et al., 2012; cited from earlier work

SMILES	BAF (G. pulex [2]; in vivo)	BCF, Sequential BCF (G. pulex [1]; Gammarus pulex)	BCF, Simultaneous BCF (G. pulex [1]; Gammarus pulex)	k1, Sequential BCF (G. pulex [1]; Gammarus pulex)	k1, Simultaneous BCF (G. pulex [1]; Gammarus pulex)	k2, Sequential BCF (G. pulex [1]; Gammarus pulex)	k2, Simultaneous BCF (G. pulex [1]; Gammarus pulex)	also measured
CCCCCCCCn1sc(Cl)c(Cl)c1=O [Sea nine]	1732	–	–	–	–	–	–	BCF, Sequential BCF (G. pulex [1]): 7696 L kg^− 1; BCF, Simultaneous BCF (G. pulex [1]): 2491 L kg^− 1; k1, Sequential BCF (G. pulex [1]): 950 L kg^− 1 day^− 1; k1, Simultaneous BCF (G. pulex [1]): 755 L kg^− 1 day^− 1; k2, Sequential BCF (G. pulex [1]): 0.123 day^− 1; k2, Simultaneous BCF (G. pulex [1]): 0.303 day^− 1
O=[N+]([O-])c1ccc(CCl)cc1 [4-Nitrobenzyl chloride]	185	214 L kg^− 1	147 L kg^− 1	259 L kg^− 1 day^− 1	666 L kg^− 1 day^− 1	1.212 day^− 1	4.540 day^− 1	–
CCOP(=S)(OCC)Oc1cc(C)nc(C(C)C)n1 [Diazinon]	82	101 L kg^− 1	77 L kg^− 1	161 L kg^− 1 day^− 1	276 L kg^− 1 day^− 1	1.590 day^− 1	3.569 day^− 1	–
O=C(O)Cc1ccccc1Nc1c(Cl)cccc1Cl [Diclofenac, diclofenac]	–	–	–	–	–	–	–	Maximum concentration sorbed to exoskeleton (G. pulex exoskeleton): 18%; Mean Compound Mass per Animal (G. pulex exoskeleton): 2070 pg; Total Mass Compound on exoskeleton (G. pulex exoskeleton): 368 (n=4) pg; BCF, Simultaneous BCF (Gammarus pulex): 14 L kg^− 1; BCF, Sequential BCF a (Gammarus pulex): 27 L kg^− 1; BCF, Sequential BCF b (Gammarus pulex): 21 L kg^− 1; k1, Sequential BCF a (Gammarus pulex): 0.253 L kg^− 1 day^− 1; k2, Sequential BCF a (Gammarus pulex): 0.009 day^− 1; k1, Sequential BCF b (Gammarus pulex): 0.269 L kg^− 1 day^− 1; k2, Sequential BCF b (Gammarus pulex): 0.013 day^− 1; k2 (elimination rate constant), Simultaneous BCF (Gammarus pulex): 0.020 day^− 1
CN(C)CCCN1c2ccccc2CCc2ccccc21 [Imipramine, imipramine]	–	–	–	–	–	–	–	loss by sorption to walls of exposure well ([3]; within 2 h): 27%; loss by sorption to walls of exposure well ([3]; within 48 h): 39%; Maximum concentration sorbed to exoskeleton (G. pulex exoskeleton): 3%; Mean Compound Mass per Animal (G. pulex exoskeleton): 1921 pg; Total Mass Compound on exoskeleton (G. pulex exoskeleton): 50 (n=2) pg; increase in BCF, sequential versus simultaneous method (Gammarus pulex; in vivo): > 10 fold; BCF, Simultaneous BCF (Gammarus pulex): 212 L kg^− 1; BCF, Sequential BCF a (Gammarus pulex): 3811 L kg^− 1; BCF, Sequential BCF b (Gammarus pulex): 4533 L kg^− 1; BCF on average between curve fitting and linear regression approaches (Gammarus pulex; sequential method): ~ 4200; k1, Sequential BCF a (Gammarus pulex): 1.361 L kg^− 1 day^− 1; k1, Sequential BCF b (Gammarus pulex): 1.360 L kg^− 1 day^− 1; k1 (uptake rate constant), Simultaneous BCF (Gammarus pulex): 1.408 L kg^− 1 day^− 1; k2 (elimination rate constant), Simultaneous BCF (Gammarus pulex): 0.007 day^− 1
COCCc1ccc(OCC(O)CNC(C)C)cc1 (centres unmarked) [Metoprolol, metoprolol]	–	–	–	–	–	–	–	Mean Compound Mass per Animal (G. pulex exoskeleton): 74 pg; Total Mass Compound on exoskeleton (G. pulex exoskeleton): 14 (n=2) pg
C=CC(=O)OCC [Ethylacrylate]	–	–	–	–	–	–	–	BAF (G. pulex [2]; ref Ashauer et al. (2010)): 87; BCF, Sequential BCF (G. pulex [4]; sequential method): 331 L kg^− 1; k1, Sequential BCF (G. pulex [4]; sequential method): 67 L kg^− 1 day^− 1; k2, Sequential BCF (G. pulex [4]; sequential method): 0.204 day^− 1; BCF, Simultaneous BCF (G. pulex [4]; simultaneous method): 69 L kg^− 1; k1, Simultaneous BCF (G. pulex [4]; simultaneous method): 110 L kg^− 1 day^− 1; k2, Simultaneous BCF (G. pulex [4]; simultaneous method): 1.594 day^− 1
CNCCC(Oc1ccc(C(F)(F)F)cc1)c1ccccc1 (centres unmarked) [fluoxetine]	–	–	–	–	–	–	–	BCF (G. pulex [5]): 185,900
Clc1c(Cl)c(Cl)c(Cl)c(Cl)c1Cl [Hexachlorobenzene]	–	4160 L kg^− 1	2505 L kg^− 1	631 L kg^− 1 day^− 1	553 L kg^− 1 day^− 1	0.152 day^− 1	0.221 day^− 1	–
Clc1cccc(Cl)c1Cl [1,2,3-Trichlorobenzene]	191	351 L kg^− 1	107 L kg^− 1	167 L kg^− 1 day^− 1	1142 L kg^− 1 day^− 1	0.475 day^− 1	10.648 day^− 1	–
CCOC(=O)CC(SP(=S)(OC)OC)C(=O)OCC (centres unmarked) [Malathion]	114	212 L kg^− 1	120 L kg^− 1	80 L kg^− 1 day^− 1	86 L kg^− 1 day^− 1	0.378 day^− 1	0.721 day^− 1	–
CNC(=O)Oc1cccc2c1OC(C)(C)C2 [Carbofuran]	65	72 L kg^− 1	68 L kg^− 1	10 L kg^− 1 day^− 1	10 L kg^− 1 day^− 1	0.140 day^− 1	0.146 day^− 1	–
Oc1ccc(Cl)cc1Cl [2,4-Dichlorophenol]	4466	72,728 L kg^− 1	9050 L kg^− 1	750 L kg^− 1 day^− 1	600 L kg^− 1 day^− 1	0.010 day^− 1	0.066 day^− 1	–
CC(C)(C)NCC(O)c1cc(O)cc(O)c1 (centres unmarked) [Terbutaline, terbutaline]	–	–	–	–	–	–	–	BCF, Simultaneous BCF (Gammarus pulex): 12 L kg^− 1; BCF, Sequential BCF a (Gammarus pulex): 22 L kg^− 1; BCF, Sequential BCF b (Gammarus pulex): 19 L kg^− 1; k1, Sequential BCF a (Gammarus pulex): 0.135 L kg^− 1 day^− 1; k2, Sequential BCF a (Gammarus pulex): 0.006 day^− 1; k1, Sequential BCF b (Gammarus pulex): 0.117 L kg^− 1 day^− 1; k2, Sequential BCF b (Gammarus pulex): 0.006 day^− 1; k1 (uptake rate constant), Simultaneous BCF (Gammarus pulex): 0.136 L kg^− 1 day^− 1; k2 (elimination rate constant), Simultaneous BCF (Gammarus pulex): 0.011 day^− 1
CC(C)NCC(O)COc1cccc2ccccc12 (centres unmarked) [Propranolol, propranolol]	–	–	–	–	–	–	–	Mean Compound Mass per Animal (G. pulex exoskeleton): 336 pg; Total Mass Compound on exoskeleton (G. pulex exoskeleton): 44 (n=1) pg
Nc1ccc(Cl)cc1Cl [2,4-Dichloroaniline]	56	179 L kg^− 1	50 L kg^− 1	70 L kg^− 1 day^− 1	140 L kg^− 1 day^− 1	0.392 day^− 1	2.830 day^− 1	–
CNC(=C[N+](=O)[O-])NCCSCc1ccc(CN(C)C)o1 [Ranitidine, ranitidine]	–	–	–	–	–	–	–	Mean Compound Mass per Animal (G. pulex exoskeleton): 238 pg; Total Mass Compound on exoskeleton (G. pulex exoskeleton): 58 (n=1) pg
CNC(=O)O/N=C/C(C)(C)SC [Aldicarb]	2	3 L kg^− 1	2 L kg^− 1	3 L kg^− 1 day^− 1	16 L kg^− 1 day^− 1	0.936 day^− 1	10.419 day^− 1	–
COc1ccc(CC(C)NCC(O)c2ccc(O)c(NC=O)c2)cc1 (centres unmarked) [Formoterol, formoterol]	–	–	–	–	–	–	–	BCF, Simultaneous BCF (Gammarus pulex): 14 L kg^− 1; BCF, Sequential BCF a (Gammarus pulex): 18 L kg^− 1; BCF, Sequential BCF b (Gammarus pulex): 33 L kg^− 1; k1, Sequential BCF a (Gammarus pulex): 0.451 L kg^− 1 day^− 1; k2, Sequential BCF a (Gammarus pulex): 0.025 day^− 1; k1, Sequential BCF b (Gammarus pulex): 0.357 L kg^− 1 day^− 1; k2, Sequential BCF b (Gammarus pulex): 0.011 day^− 1; k1 (uptake rate constant), Simultaneous BCF (Gammarus pulex): 0.408 L kg^− 1 day^− 1; k2 (elimination rate constant), Simultaneous BCF (Gammarus pulex): 0.029 day^− 1
O=[N+]([O-])NC1=NCCN1Cc1ccc(Cl)nc1 [Imidacloprid]	7	13 L kg^− 1	7 L kg^− 1	2 L kg^− 1 day^− 1	2 L kg^− 1 day^− 1	0.175 day^− 1	0.265 day^− 1	–
Oc1cc(Cl)c(Cl)cc1Cl [2,4,5-Trichlorophenol]	2635	8327 L kg^− 1	3729 L kg^− 1	1091 L kg^− 1 day^− 1	941 L kg^− 1 day^− 1	0.131 day^− 1	0.252 day^− 1	–
